Reference: article PMC6025150, “Synthesis, enzyme inhibitory kinetics mechanism and computational study of N-(4-methoxyphenethyl)-N-(substituted)-4-methylbenzenesulfonamides as novel therapeutic agents for Alzheimer’s disease” (PeerJ, 2018)
In brackets after ≈: the same amount, converted by molar mass. Several values for one entry are separate records, joined by “and”; a condition that tells them apart may be missing. Identical values can stand only once.

target: T1, acetylcholinesterase (from human erythrocytes) (Homo sapiens, UniProt P22303); experiment: biochemical; parameters: LogIC50 (best-fit value): unit not given here; conditions: Conc: 0.0306373 (unit not given); Raw Data of IC50 sheet
T1 construct: acetylcholinesterase (from human erythrocytes, purchased from Sigma-Aldrich, Seoul, Korea); purchased Sigma-Aldrich, Seoul, Korea; host or cells: human erythrocytes (natural source)
Experimental: The inhibitory activities of synthesized compounds were determined spectrophotometrically using acetylthiocholine iodide as substrate by following the method of ([Ellman et al., 1961]). Briefly, The assay solution consisted of 180 µL of 50 mM Tris-HCl buffer, pH 7.7, containing (0.1 M sodium chloride and 0.02 M magnesium chloride) and 20 µL of enzyme (AChE, EC 3.1.1.7), acetylcholinesterase (from human erythrocytes, purchased from Sigma-Aldrich, Seoul, Korea) solution (50 U per well); increasing concentrations of test compounds (10 µL) were added to the assay solution and pre incubated for 30 min at 4 °C. After that 5,5′ Dithiobis (2 nitrobenzoic acid) (0.3 mM, 20 µL) and acetylthiocholine iodide (1.8 mM, 20 µL) were added to the reaction mixture and incubated at 37 °C for 10 min, followed by the measurement of absorbance at 412 nm. For non-enzymatic reaction, the assays were carried out with a blank containing all components except acetylcholinesterase. The assay measurements were measured at 412 nm using a micro plate reader (OPTI Max Tunable; Molecular Devices, Sunnyvale, CA, USA) having a wave-length range from 340–850 nm; for 96 well plates. The reaction rates were compared and percent inhibition was calculated due to the presence of tested inhibitors. […] Each concentration was analyzed in three independent experiments run in triplicate. The IC50 values were calculated by nonlinear regression using GraphPad Prism 5.0.
The % of Inhibition of Acetylcholinesterase was calculated as following: Inhibition%=B−S∕B×100. Here, the B and S are the absorbance’s for the blank and samples.

T1 sequence (P22303 32-617 isoform P22303-2 limits assumed): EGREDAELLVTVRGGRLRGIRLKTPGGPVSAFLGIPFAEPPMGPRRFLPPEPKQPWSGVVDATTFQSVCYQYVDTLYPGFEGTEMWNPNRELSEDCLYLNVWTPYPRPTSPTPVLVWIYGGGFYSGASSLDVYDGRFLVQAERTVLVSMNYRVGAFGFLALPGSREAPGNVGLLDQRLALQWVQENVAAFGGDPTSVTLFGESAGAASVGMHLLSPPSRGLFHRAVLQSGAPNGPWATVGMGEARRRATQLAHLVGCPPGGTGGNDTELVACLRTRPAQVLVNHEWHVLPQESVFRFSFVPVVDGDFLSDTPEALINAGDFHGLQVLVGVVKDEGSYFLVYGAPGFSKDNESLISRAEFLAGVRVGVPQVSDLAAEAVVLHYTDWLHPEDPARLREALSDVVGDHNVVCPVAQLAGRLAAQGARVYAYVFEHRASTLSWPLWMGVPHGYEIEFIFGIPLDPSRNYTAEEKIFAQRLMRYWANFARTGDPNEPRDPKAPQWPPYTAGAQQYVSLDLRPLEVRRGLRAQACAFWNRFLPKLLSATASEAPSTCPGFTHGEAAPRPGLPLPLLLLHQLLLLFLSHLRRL

SMILES | inhibition, single experiment
COc1ccc(CCN(Cc2ccc(C)cc2)S(=O)(=O)c2ccc(C)cc2)cc1 [Compound 5j, N-(4-Methoxyphenethyl)-4-methyl-N-(4-methylbenzyl) benzensulfonamide] | 17.2222 and 17.1022

same assay, conditions: Conc: 0.0306373 (unit not given); mean of three; Raw Data of IC50 sheet

SMILES | inhibition (Mean)
COc1ccc(CCN(Cc2ccc(C)cc2)S(=O)(=O)c2ccc(C)cc2)cc1 [Compound 5j, N-(4-Methoxyphenethyl)-4-methyl-N-(4-methylbenzyl) benzensulfonamide] | 17.3151

same assay, conditions: Conc: 0.0612745 (unit not given); Raw Data of IC50 sheet

SMILES | inhibition, single experiment
COc1ccc(CCN(Cc2ccc(C)cc2)S(=O)(=O)c2ccc(C)cc2)cc1 [Compound 5j, N-(4-Methoxyphenethyl)-4-methyl-N-(4-methylbenzyl) benzensulfonamide] | 31.4199 and 30.0777

same assay, conditions: Conc: 0.0612745 (unit not given); mean of three; Raw Data of IC50 sheet

SMILES | inhibition (Mean)
COc1ccc(CCN(Cc2ccc(C)cc2)S(=O)(=O)c2ccc(C)cc2)cc1 [Compound 5j, N-(4-Methoxyphenethyl)-4-methyl-N-(4-methylbenzyl) benzensulfonamide] | 30.8306

same assay, conditions: Conc: 0.122549 (unit not given); Raw Data of IC50 sheet

SMILES | inhibition, single experiment
COc1ccc(CCN(Cc2ccc(C)cc2)S(=O)(=O)c2ccc(C)cc2)cc1 [Compound 5j, N-(4-Methoxyphenethyl)-4-methyl-N-(4-methylbenzyl) benzensulfonamide] | 36.8749 and 37.0114

same assay, conditions: Conc: 0.122549 (unit not given); mean of three; Raw Data of IC50 sheet

SMILES | inhibition (Mean)
COc1ccc(CCN(Cc2ccc(C)cc2)S(=O)(=O)c2ccc(C)cc2)cc1 [Compound 5j, N-(4-Methoxyphenethyl)-4-methyl-N-(4-methylbenzyl) benzensulfonamide] | 36.7468

same assay, conditions: Conc: 0.245098 (unit not given); Raw Data of IC50 sheet

SMILES | inhibition, single experiment
COc1ccc(CCN(Cc2ccc(C)cc2)S(=O)(=O)c2ccc(C)cc2)cc1 [Compound 5j, N-(4-Methoxyphenethyl)-4-methyl-N-(4-methylbenzyl) benzensulfonamide] | 48.1258 and 49.804

same assay, conditions: Conc: 0.245098 (unit not given); mean of three; Raw Data of IC50 sheet

SMILES | inhibition (Mean)
COc1ccc(CCN(Cc2ccc(C)cc2)S(=O)(=O)c2ccc(C)cc2)cc1 [Compound 5j, N-(4-Methoxyphenethyl)-4-methyl-N-(4-methylbenzyl) benzensulfonamide] | 49.2304

same assay, conditions: Conc: 0.490196 (unit not given); Raw Data of IC50 sheet

SMILES | inhibition, single experiment
COc1ccc(CCN(Cc2ccc(C)cc2)S(=O)(=O)c2ccc(C)cc2)cc1 [Compound 5j, N-(4-Methoxyphenethyl)-4-methyl-N-(4-methylbenzyl) benzensulfonamide] | 54.7822 and 55.2287

same assay, conditions: Conc: 0.490196 (unit not given); mean of three; Raw Data of IC50 sheet

SMILES | inhibition (Mean)
COc1ccc(CCN(Cc2ccc(C)cc2)S(=O)(=O)c2ccc(C)cc2)cc1 [Compound 5j, N-(4-Methoxyphenethyl)-4-methyl-N-(4-methylbenzyl) benzensulfonamide] | 55.0656

same assay, conditions: Conc: 0.980392 (unit not given); Raw Data of IC50 sheet

SMILES | inhibition, single experiment
COc1ccc(CCN(Cc2ccc(C)cc2)S(=O)(=O)c2ccc(C)cc2)cc1 [Compound 5j, N-(4-Methoxyphenethyl)-4-methyl-N-(4-methylbenzyl) benzensulfonamide] | 59.1009 and 58.8888

same assay, conditions: Conc: 0.980392 (unit not given); mean of three; Raw Data of IC50 sheet

SMILES | inhibition (Mean)
COc1ccc(CCN(Cc2ccc(C)cc2)S(=O)(=O)c2ccc(C)cc2)cc1 [Compound 5j, N-(4-Methoxyphenethyl)-4-methyl-N-(4-methylbenzyl) benzensulfonamide] | 59.2947

same assay, conditions: Conc: 1.96078 (unit not given); Raw Data of IC50 sheet

SMILES | inhibition, single experiment
COc1ccc(CCN(Cc2ccc(C)cc2)S(=O)(=O)c2ccc(C)cc2)cc1 [Compound 5j, N-(4-Methoxyphenethyl)-4-methyl-N-(4-methylbenzyl) benzensulfonamide] | 65.9226 and 65.7652

same assay, conditions: Conc: 1.96078 (unit not given); mean of three; Raw Data of IC50 sheet

SMILES | inhibition (Mean)
COc1ccc(CCN(Cc2ccc(C)cc2)S(=O)(=O)c2ccc(C)cc2)cc1 [Compound 5j, N-(4-Methoxyphenethyl)-4-methyl-N-(4-methylbenzyl) benzensulfonamide] | 65.7178

same assay, conditions: Conc: 3.92157 (unit not given); Raw Data of IC50 sheet

SMILES | inhibition, single experiment
COc1ccc(CCN(Cc2ccc(C)cc2)S(=O)(=O)c2ccc(C)cc2)cc1 [Compound 5j, N-(4-Methoxyphenethyl)-4-methyl-N-(4-methylbenzyl) benzensulfonamide] | 90.0712 and 89.7746

same assay, conditions: Conc: 3.92157 (unit not given); mean of three; Raw Data of IC50 sheet

SMILES | inhibition (Mean)
COc1ccc(CCN(Cc2ccc(C)cc2)S(=O)(=O)c2ccc(C)cc2)cc1 [Compound 5j, N-(4-Methoxyphenethyl)-4-methyl-N-(4-methylbenzyl) benzensulfonamide] | 89.7021

same assay, conditions: Concentration 0.0306373 (unit not given); IC50 Raw Data sheet

SMILES | % inhibition
COc1ccc(CCN(Cc2ccc(C)cc2)S(=O)(=O)c2ccc(C)cc2)cc1 [Compound 5j, N-(4-Methoxyphenethyl)-4-methyl-N-(4-methylbenzyl) benzensulfonamide] | 17.621%

same assay, conditions: Concentration 0.0612745 (unit not given); IC50 Raw Data sheet

SMILES | % inhibition
COc1ccc(CCN(Cc2ccc(C)cc2)S(=O)(=O)c2ccc(C)cc2)cc1 [Compound 5j, N-(4-Methoxyphenethyl)-4-methyl-N-(4-methylbenzyl) benzensulfonamide] | 30.9943%

same assay, conditions: Concentration 0.122549 (unit not given); IC50 Raw Data sheet

SMILES | % inhibition
COc1ccc(CCN(Cc2ccc(C)cc2)S(=O)(=O)c2ccc(C)cc2)cc1 [Compound 5j, N-(4-Methoxyphenethyl)-4-methyl-N-(4-methylbenzyl) benzensulfonamide] | 36.3541%

same assay, conditions: Concentration 0.245098 (unit not given); IC50 Raw Data sheet

SMILES | % inhibition
COc1ccc(CCN(Cc2ccc(C)cc2)S(=O)(=O)c2ccc(C)cc2)cc1 [Compound 5j, N-(4-Methoxyphenethyl)-4-methyl-N-(4-methylbenzyl) benzensulfonamide] | 49.7613%

same assay, conditions: Concentration 0.490196 (unit not given); IC50 Raw Data sheet

SMILES | % inhibition
COc1ccc(CCN(Cc2ccc(C)cc2)S(=O)(=O)c2ccc(C)cc2)cc1 [Compound 5j, N-(4-Methoxyphenethyl)-4-methyl-N-(4-methylbenzyl) benzensulfonamide] | 55.1859%

same assay, conditions: Concentration 0.980392 (unit not given); IC50 Raw Data sheet

SMILES | % inhibition
COc1ccc(CCN(Cc2ccc(C)cc2)S(=O)(=O)c2ccc(C)cc2)cc1 [Compound 5j, N-(4-Methoxyphenethyl)-4-methyl-N-(4-methylbenzyl) benzensulfonamide] | 59.8945%

same assay, conditions: Concentration 1.96078 (unit not given); IC50 Raw Data sheet

SMILES | % inhibition
COc1ccc(CCN(Cc2ccc(C)cc2)S(=O)(=O)c2ccc(C)cc2)cc1 [Compound 5j, N-(4-Methoxyphenethyl)-4-methyl-N-(4-methylbenzyl) benzensulfonamide] | 65.4657%

same assay, conditions: Concentration 3.92157 (unit not given); IC50 Raw Data sheet

SMILES | % inhibition
COc1ccc(CCN(Cc2ccc(C)cc2)S(=O)(=O)c2ccc(C)cc2)cc1 [Compound 5j, N-(4-Methoxyphenethyl)-4-methyl-N-(4-methylbenzyl) benzensulfonamide] | 89.2606%

same assay, conditions: each of three independent experiments; Raw Data of IC50 sheet

SMILES | IC50, single experiment
COc1ccc(CCN(Cc2ccc(C)cc2)S(=O)(=O)c2ccc(C)cc2)cc1 [Compound 5j, N-(4-Methoxyphenethyl)-4-methyl-N-(4-methylbenzyl) benzensulfonamide] | 0.5355 µg/mL and 0.4119 µg/mL

same assay, conditions: from human erythrocytes; mean ± SEM; read-out: Acetylcholinesterase IC50 ± SEM

SMILES | IC50
COc1ccc(CCN(Cc2ccc(C)cc2)S(=O)(=O)c2ccc(C)cc2)cc1 [Compound 5j, N-(4-Methoxyphenethyl)-4-methyl-N-(4-methylbenzyl) benzensulfonamide] | 1.11 ± 0.0999 µM

same assay, conditions: log(inhibitor) vs. response fit, single run; IC50 Raw Data sheet

SMILES | LogIC50 (best-fit value)
COc1ccc(CCN(Cc2ccc(C)cc2)S(=O)(=O)c2ccc(C)cc2)cc1 [Compound 5j, N-(4-Methoxyphenethyl)-4-methyl-N-(4-methylbenzyl) benzensulfonamide] | -0.3835

same assay, conditions: log(inhibitor) vs. response fit, single run; unit not given; IC50 Raw Data sheet

SMILES | IC50 (best-fit value)
COc1ccc(CCN(Cc2ccc(C)cc2)S(=O)(=O)c2ccc(C)cc2)cc1 [Compound 5j, N-(4-Methoxyphenethyl)-4-methyl-N-(4-methylbenzyl) benzensulfonamide] | 0.4136

same assay, conditions: mean converted to uM; Raw Data of IC50 sheet; read-out: IC50

SMILES | IC50
COc1ccc(CCN(Cc2ccc(C)cc2)S(=O)(=O)c2ccc(C)cc2)cc1 [Compound 5j, N-(4-Methoxyphenethyl)-4-methyl-N-(4-methylbenzyl) benzensulfonamide] | 1.11 µM

same assay, conditions: mean of three experiments; Raw Data of IC50 sheet

SMILES | IC50 (Mean)
COc1ccc(CCN(Cc2ccc(C)cc2)S(=O)(=O)c2ccc(C)cc2)cc1 [Compound 5j, N-(4-Methoxyphenethyl)-4-methyl-N-(4-methylbenzyl) benzensulfonamide] | 0.4537 µg/mL (≈ 1.11 µM)
